Data as given in patent US7902327B2, “Dendrimeric peptides, pharmaceutical compositions and methods of using the same” (New York University School of Medicine, priority 2007, dated 2011).
In brackets after ≈: the same amount, converted by molar mass. Where a SMILES comes first, the peptide text is derived from it. Where no end group is shown, it is not given here. Side-chain parts run from the residue outwards. [ ]: non-standard residue; d: D form. The star is where a group is joined. Lys(α,ε-(ArgTrp)2) = N=C(N)NCCC[C@H](N)C(=O)N[C@@H](Cc1c[nH]c2ccccc12)C(=O)NCCCC[C@H](NC(=O)[C@H](Cc1c[nH]c2ccccc12)NC(=O)[C@@H](N)CCCNC(=N)N)C(=O)*; NHBn = c1ccc(CN*)cc1; OBn = c1ccc(CO*)cc1; X1 = CCCCCCCCCN*; βAla = NCCC(=O)O

What was measured:
[1] = system: ampicillin- and streptomycin-resistant E. coli (D31); conditions: salt not stated
[2] = system: multi-drug resistant strain S. aureus; conditions: salt not stated
B. Subtilis (ATCC 6633) = conditions: ATCC 6633
[3] = system: B. anthracis (32F2 Sterne)
[4] = system: Acinetobacter. baumannii (ATCC BAA-747)
E. coli RP437 biofilms = test: biofilm assay on stainless steel coupons with LIVE/DEAD staining; format: cell-based; conditions: for Biofilm coefficients: Dead cells / Biofilm coefficients: Live cells / Biofilm coefficients: Total biofilms: 24 hours
Experimental: The stainless steel (S.S.) coupons were polished using a fine 3M SandBlaster sandpaper, then autoclaved for sterilization. […] For all the treatments, duplicate coupons were tested. To analyze the E. coli biofilms using fluorescence microscopy, the biofilms were stained with […] bacterial viability kit (Cat# L7012, Invitrogen Corporation, California). Each S.S. coupon was washed gently by dipping vertically in 0.85% NaCl buffer three times (change to fresh buffer after each dipping). Then, they were soaked in 1 mL of 0.85% NaCl buffer containing 3 μl of staining component A and B (1:4) in the dark for 15 mins. Images were taken by AXIO Imager.M1 (Carl Zeiss, German). Five images were taken for each sample. Data were obtained and are presented in Table 3, below, as well as in FIG. 5.

| Molecule | MIC50 E. coli (E. coli) | MIC50 S. aureus [2] | MIC50 A. baumannii [4] | also measured |
| --- | --- | --- | --- | --- |
| N=C(N)NCCC[C@H](N)C(=O)N[C@@H](Cc1c[nH]c2ccccc12)C(=O)NCCCC[C@H](NC(=O)[C@H](Cc1c[nH]c2ccccc12)NC(=O)[C@@H](N)CCCNC(=N)N)C(=O)NCCCC[C@H](NC(=O)[C@H](CCCCNC(=O)[C@H](Cc1c[nH]c2ccccc12)NC(=O)[C@@H](N)CCCNC(=N)N)NC(=O)[C@H](Cc1c[nH]c2ccccc12)NC(=O)[C@@H](N)CCCNC(=N)N)C(=O)NCCC(=O)NCc1ccccc1 [(RW)4D-Benzyl amine] (H-RWK([Trp-Arg])K(Lys(α,ε-(ArgTrp)2))[βAla]-NHBn) | 12.8 µg/mL (≈ 6.62 µM) | 37.8 µg/mL | 121 µg/mL (≈ 62.6 µM) | MIC50 E. coli D31 [1]: 21.3 µg/mL; MIC50 B. subtilis (B. Subtilis (ATCC 6633)): 5.0 µg/mL (≈ 2.59 µM); MIC50 B. anthracis [3]: 34.8 µg/mL (≈ 18 µM) |
| N=C(N)NCCC[C@H](N)C(=O)N[C@@H](Cc1c[nH]c2ccccc12)C(=O)NCCCC[C@H](NC(=O)[C@H](Cc1c[nH]c2ccccc12)NC(=O)[C@@H](N)CCCNC(=N)N)C(=O)NCCCC[C@H](NC(=O)[C@H](CCCCNC(=O)[C@H](Cc1c[nH]c2ccccc12)NC(=O)[C@@H](N)CCCNC(=N)N)NC(=O)[C@H](Cc1c[nH]c2ccccc12)NC(=O)[C@@H](N)CCCNC(=N)N)C(=O)NCCC(=O)OCc1ccccc1 [(RW)4D-Benzyl ester] (H-RWK([Trp-Arg])K(Lys(α,ε-(ArgTrp)2))[βAla]-OBn) | 14.3 µg/mL (≈ 7.4 µM) | 19.6 µg/mL | 78.7 µg/mL (≈ 40.7 µM) | MIC50 E. coli D31 [1]: 29.7 µg/mL; MIC50 B. subtilis (B. Subtilis (ATCC 6633)): 6.8 µg/mL (≈ 3.52 µM); MIC50 B. anthracis [3]: 34.2 µg/mL (≈ 17.7 µM) |
| CCCCCCCCCNC(=O)CCNC(=O)[C@H](CCCCNC(=O)[C@H](CCCCNC(=O)[C@H](Cc1c[nH]c2ccccc12)NC(=O)[C@@H](N)CCCNC(=N)N)NC(=O)[C@H](Cc1c[nH]c2ccccc12)NC(=O)[C@@H](N)CCCNC(=N)N)NC(=O)[C@H](CCCCNC(=O)[C@H](Cc1c[nH]c2ccccc12)NC(=O)[C@@H](N)CCCNC(=N)N)NC(=O)[C@H](Cc1c[nH]c2ccccc12)NC(=O)[C@@H](N)CCCNC(=N)N [(RW)4D-Nonylamine] (H-RWK([Trp-Arg])K(Lys(α,ε-(ArgTrp)2))[βAla]-X1) | 15.8 µg/mL (≈ 8.03 µM) | 21.6 µg/mL | 75.2 µg/mL (≈ 38.2 µM) | MIC50 E. coli D31 [1]: 26.7 µg/mL; MIC50 B. subtilis (B. Subtilis (ATCC 6633)): 6.5 µg/mL (≈ 3.3 µM); MIC50 B. anthracis [3]: 31.8 µg/mL (≈ 16.2 µM) |
| NC(=O)CCNC(=O)[C@H](CCCCNC(=O)[C@H](CCCCNC(=O)[C@H](Cc1c[nH]c2ccccc12)NC(=O)[C@@H](N)Cc1c[nH]cn1)NC(=O)[C@H](Cc1c[nH]c2ccccc12)NC(=O)[C@@H](N)Cc1c[nH]cn1)NC(=O)[C@H](CCCCNC(=O)[C@H](Cc1c[nH]c2ccccc12)NC(=O)[C@@H](N)Cc1c[nH]cn1)NC(=O)[C@H](Cc1c[nH]c2ccccc12)NC(=O)[C@@H](N)Cc1c[nH]cn1 [Den(HW)4D] | 30.6 µg/mL (≈ 17.3 µM) |  | 82.7 µg/mL (≈ 46.8 µM) |  |
| NCCCC[C@H](N)C(=O)N[C@@H](Cc1ccccc1)C(=O)NCCCC[C@H](NC(=O)[C@H](Cc1ccccc1)NC(=O)[C@@H](N)CCCCN)C(=O)NCCCC[C@H](NC(=O)[C@H](CCCCNC(=O)[C@H](Cc1ccccc1)NC(=O)[C@@H](N)CCCCN)NC(=O)[C@H](Cc1ccccc1)NC(=O)[C@@H](N)CCCCN)C(=O)NCCC(N)=O [Den(KF)4D] | 77 µg/mL (≈ 48.9 µM) | 145 µg/mL | 175 µg/mL (≈ 111 µM) |  |
| NCCCC[C@H](N)C(=O)N[C@@H](Cc1c[nH]c2ccccc12)C(=O)NCCCC[C@H](NC(=O)[C@H](Cc1c[nH]c2ccccc12)NC(=O)[C@@H](N)CCCCN)C(=O)NCCCC[C@H](NC(=O)[C@H](CCCCNC(=O)[C@H](Cc1c[nH]c2ccccc12)NC(=O)[C@@H](N)CCCCN)NC(=O)[C@H](Cc1c[nH]c2ccccc12)NC(=O)[C@@H](N)CCCCN)C(=O)NCCC(N)=O [Den(KW)4D] | 30.6 µg/mL (≈ 17.7 µM) | 23.3 µg/mL | 52 µg/mL (≈ 30.1 µM) |  |
| NCCCC[C@H](N)C(=O)N[C@@H](Cc1ccc(O)cc1)C(=O)NCCCC[C@H](NC(=O)[C@H](Cc1ccc(O)cc1)NC(=O)[C@@H](N)CCCCN)C(=O)NCCCC[C@H](NC(=O)[C@H](CCCCNC(=O)[C@H](Cc1ccc(O)cc1)NC(=O)[C@@H](N)CCCCN)NC(=O)[C@H](Cc1ccc(O)cc1)NC(=O)[C@@H](N)CCCCN)C(=O)NCCC(N)=O [Den(KY)4D] | 84.4 µg/mL (≈ 51.5 µM) | 240 µg/mL | 360 µg/mL (≈ 220 µM) |  |
| N=C(N)NCCC[C@H](N)C(=O)N[C@@H](Cc1ccc2ccccc2c1)C(=O)NCCCC[C@H](NC(=O)[C@H](Cc1ccc2ccccc2c1)NC(=O)[C@@H](N)CCCNC(=N)N)C(=O)NCCCC[C@H](NC(=O)[C@H](CCCCNC(=O)[C@H](Cc1ccc2ccccc2c1)NC(=O)[C@@H](N)CCCNC(=N)N)NC(=O)[C@H](Cc1ccc2ccccc2c1)NC(=O)[C@@H](N)CCCNC(=N)N)C(=O)NCCC(N)=O [Den(R-2Nal)4D] | 21.5 µg/mL (≈ 11.4 µM) | 36.0 µg/mL | 51.3 µg/mL (≈ 27.2 µM) |  |
| N=C(N)NCCC[C@H](N)C(=O)N[C@@H](Cc1ccccc1)C(=O)NCCCC[C@H](NC(=O)[C@H](Cc1ccccc1)NC(=O)[C@@H](N)CCCNC(=N)N)C(=O)NCCCC[C@H](NC(=O)[C@H](CCCCNC(=O)[C@H](Cc1ccccc1)NC(=O)[C@@H](N)CCCNC(=N)N)NC(=O)[C@H](Cc1ccccc1)NC(=O)[C@@H](N)CCCNC(=N)N)C(=O)NCCC(N)=O [Den(RF)4D] | 30 µg/mL (≈ 17.8 µM) | 180 µg/mL | 160 µg/mL (≈ 94.9 µM) |  |
| N=C(N)NCCC[C@H](N)C(=O)NC(Cc1c[nH]c2ccc(F)cc12)C(=O)NCCCC[C@H](NC(=O)C(Cc1c[nH]c2ccc(F)cc12)NC(=O)[C@@H](N)CCCNC(=N)N)C(=O)NCCCC[C@H](NC(=O)[C@H](CCCCNC(=O)C(Cc1c[nH]c2ccc(F)cc12)NC(=O)[C@@H](N)CCCNC(=N)N)NC(=O)C(Cc1c[nH]c2ccc(F)cc12)NC(=O)[C@@H](N)CCCNC(=N)N)C(=O)NCCC(N)=O (stereo partly shown) [Den(RW*)4D] | 9.3 µg/mL (≈ 4.86 µM) | 13 µg/mL | 35 µg/mL (≈ 18.3 µM) |  |
| N=C(N)NCCC[C@H](N)C(=O)N[C@@H](Cc1ccc(O)cc1)C(=O)NCCCC[C@H](NC(=O)[C@H](Cc1ccc(O)cc1)NC(=O)[C@@H](N)CCCNC(=N)N)C(=O)NCCCC[C@H](NC(=O)[C@H](CCCCNC(=O)[C@H](Cc1ccc(O)cc1)NC(=O)[C@@H](N)CCCNC(=N)N)NC(=O)[C@H](Cc1ccc(O)cc1)NC(=O)[C@@H](N)CCCNC(=N)N)C(=O)NCCC(N)=O [Den(RY)4D] | 12.6 µg/mL (≈ 7.2 µM) | 45.7 µg/mL | 193 µg/mL (≈ 110 µM) |  |
| RWRWRW-NH2 (C-terminus assumed) [Hexamer, reference compound] |  |  |  | Total biofilm formation compared with blank control (ANOVA) (E. coli RP437 biofilms; 25 μg/mL): not significant; Biofilm coefficients: Dead cells (E. coli RP437 biofilms; 25 μg/mL): 12.29% ± 2.00%; Biofilm coefficients: Live cells (E. coli RP437 biofilms; 25 μg/mL): 5.18% ± 1.57%; Biofilm coefficients: Total biofilms (E. coli RP437 biofilms; 25 μg/mL): 17.49% ± 2.20%; Total biofilm formation compared with blank control (ANOVA) (E. coli RP437 biofilms; 50 μg/mL): significantly reduced; Biofilm coefficients: Dead cells (E. coli RP437 biofilms; 50 μg/mL): 12.22% ± 2.02%; Biofilm coefficients: Live cells (E. coli RP437 biofilms; 50 μg/mL): 4.25% ± 1.55%; Biofilm coefficients: Total biofilms (E. coli RP437 biofilms; 50 μg/mL): 16.68% ± 2.11% |
